Measured values from ChEMBL document CHEMBL5154648, “Antitumor activity of novel POLA1-HDAC11 dual inhibitors” (Eur J Med Chem, 2022).
Calls of active or inactive are those of the source. The rule behind the calls is not given here.

Key:
NCI-H460 [1] = assay: Antiproliferative activity against human NCI-H460 cells incubated for 24 hrs followed by incubating in drug-free medium for 48 hrs and measured by SRB assay; assay type: functional, cell-based
[2] = Antiproliferative activity against human H460-R9A cells incubated for 24 hrs followed by incubating in drug-free medium for 48 hrs and measured by SRB assay; assay type: functional, cell-based
[3] = Resistance index, ratio of IC50 for human NCI-H460 cells to IC50 for H460-R9A cells; assay type: functional
A2780 = assay: Antiproliferative activity against human A2780 cells incubated for 24 hrs followed by incubating in drug-free medium for 48 hrs and measured by SRB assay; assay type: functional, cell-based
[4] = Antiproliferative activity against multi-drug resistant human A2780-DX cells incubated for 24 hrs followed by incubating in drug-free medium for 48 hrs and measured by SRB assay; assay type: functional, cell-based
[5] = Resistance index, ratio of IC50 for human A2780 cells to IC50 for A2780-DX cells; assay type: functional
H460-R9A = assay: Antiproliferative activity against human H460-R9A cells at 3.75 to 60 uM after 72 hrs by MTT assay; assay type: functional, cell-based; conditions: dose 3.75-60 µM
L-428 = assay: Antiproliferative activity against human L-428 cells incubated for 24 hrs followed by incubating in drug-free medium for 48 hrs and measured by SRB assay; assay type: functional, cell-based
[6] = molecular target: T1, DNA polymerase alpha catalytic subunit (Homo sapiens) (UniProt P09884); assay: Inhibition of POLA1 in human NCI-H460 cells at 7.4 uM assessed as upregulation of p21 expression and measured by Western blot analysis; assay type: cell-based
T1 sequence (whole entry): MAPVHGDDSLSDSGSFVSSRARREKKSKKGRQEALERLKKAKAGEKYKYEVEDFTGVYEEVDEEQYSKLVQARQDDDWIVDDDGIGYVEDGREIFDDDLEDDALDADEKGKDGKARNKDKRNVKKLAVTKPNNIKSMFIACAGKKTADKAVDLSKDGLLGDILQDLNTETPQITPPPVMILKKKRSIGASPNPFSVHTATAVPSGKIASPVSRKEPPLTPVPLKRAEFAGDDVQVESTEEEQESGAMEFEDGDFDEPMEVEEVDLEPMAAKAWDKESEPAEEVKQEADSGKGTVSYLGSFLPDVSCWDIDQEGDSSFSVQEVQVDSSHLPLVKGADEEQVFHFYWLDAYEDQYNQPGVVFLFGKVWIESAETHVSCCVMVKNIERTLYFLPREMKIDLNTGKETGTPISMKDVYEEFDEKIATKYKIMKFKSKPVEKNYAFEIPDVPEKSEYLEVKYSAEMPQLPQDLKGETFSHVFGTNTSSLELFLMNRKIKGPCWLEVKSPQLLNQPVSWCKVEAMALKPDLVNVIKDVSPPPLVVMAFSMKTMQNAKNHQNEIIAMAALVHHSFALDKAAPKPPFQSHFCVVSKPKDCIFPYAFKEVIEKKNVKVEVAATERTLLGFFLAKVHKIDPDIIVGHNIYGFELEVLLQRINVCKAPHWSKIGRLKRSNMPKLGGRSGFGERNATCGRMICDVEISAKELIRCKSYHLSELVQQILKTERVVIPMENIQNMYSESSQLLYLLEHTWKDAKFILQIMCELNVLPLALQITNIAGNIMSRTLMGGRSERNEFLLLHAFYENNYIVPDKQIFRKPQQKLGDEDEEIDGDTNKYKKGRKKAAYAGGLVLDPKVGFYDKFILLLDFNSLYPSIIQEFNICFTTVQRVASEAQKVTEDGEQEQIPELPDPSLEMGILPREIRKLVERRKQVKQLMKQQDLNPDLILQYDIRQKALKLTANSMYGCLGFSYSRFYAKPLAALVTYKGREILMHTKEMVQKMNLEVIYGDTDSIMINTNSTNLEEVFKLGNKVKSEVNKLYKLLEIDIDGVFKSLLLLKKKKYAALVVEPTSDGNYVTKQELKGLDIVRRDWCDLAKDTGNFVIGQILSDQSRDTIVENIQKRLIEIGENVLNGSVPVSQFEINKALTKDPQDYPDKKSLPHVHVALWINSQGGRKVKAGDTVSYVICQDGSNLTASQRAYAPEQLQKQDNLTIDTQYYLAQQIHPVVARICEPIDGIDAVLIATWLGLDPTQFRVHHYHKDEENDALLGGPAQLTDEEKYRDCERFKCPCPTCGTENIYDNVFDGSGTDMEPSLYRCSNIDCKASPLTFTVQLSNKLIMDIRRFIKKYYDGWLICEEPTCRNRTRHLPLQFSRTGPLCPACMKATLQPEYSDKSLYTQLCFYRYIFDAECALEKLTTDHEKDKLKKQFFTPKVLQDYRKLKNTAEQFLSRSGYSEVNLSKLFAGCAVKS

NCI-H460 [7] = assay: Induction of DNA damage in human NCI-H460 cells at 7.4 uM assessed as increase in p-H2AX levels and measured by Western blot analysis; assay type: functional, cell-based
NCI-H460 [8] = assay: Antiproliferative activity against human NCI-H460 cells at 7.4 uM assessed as reduction in p-ERK1/2 level and measured by Western blot analysis; assay type: functional, cell-based
NCI-H460 [9] = assay: Antiproliferative activity against human NCI-H460 cells at 7.4 uM assessed as reduction in PIN1 level and measured by Western blot analysis; assay type: functional, cell-based
NCI-H460 [10] = assay: Induction of cell cycle arrest in human NCI-H460 cells assessed as accumulation of cells at sub-G1 phase at 4.2 uM after 72 hrs by flow cytometry (reference value: 1.1%); assay type: functional
NCI-H460 [11] = assay: Induction of cell cycle arrest in human NCI-H460 cells assessed as accumulation of cells at G0/1 phase at 4.2 uM after 72 hrs by flow cytometry (reference value: 46.8%); assay type: functional
NCI-H460 [12] = assay: Induction of cell cycle arrest in human NCI-H460 cells assessed as accumulation of cells at S phase at 4.2 uM after 72 hrs by flow cytometry (reference value: 32.1%); assay type: functional
NCI-H460 [13] = assay: Induction of cell cycle arrest in human NCI-H460 cells assessed as accumulation of cells at G2/M phase at 4.2 uM after 72 hrs by flow cytometry (reference value: 21.1%); assay type: functional
[14] = Induction of cell cycle arrest in human H460-R9A cells assessed as accumulation of cells at sub-G1 phase at 1.9 uM after 72 hrs by flow cytometry (reference value: 1.5%); assay type: functional
[15] = Induction of cell cycle arrest in human H460-R9A cells assessed as accumulation of cells at G0/1 phase at 1.9 uM after 72 hrs by flow cytometry (reference value: 50.1%); assay type: functional
[16] = Induction of cell cycle arrest in human H460-R9A cells assessed as accumulation of cells at S phase at 1.9 uM after 72 hrs by flow cytometry (reference value: 34.5%); assay type: functional
[17] = Induction of cell cycle arrest in human H460-R9A cells assessed as accumulation of cells at G2/M phase at 1.9 uM after 72 hrs by flow cytometry (reference value: 15.4%); assay type: functional

| Compound | IC50 (NCI-H460 [1]) | IC50 (A2780) | IC50 [2] | Ratio IC50 [3] | IC50 [4] | Ratio IC50 [5] | further results |
| --- | --- | --- | --- | --- | --- | --- | --- |
| O=C(O)C=Cc1ccc(-c2ccc(OCCCCC(=O)NO)c(C34CC5CC(CC(C5)C3)C4)c2)cc1 | 1.9 µM | 3.6 µM | 8.6 µM | 4.5 | 6.4 µM | 1.7 | – |
| CCCCCCCCCCCCCCCCNNC(=O)c1cccs1 | – | – | – | – | – | – | Activity (H460-R9A): Active |
| O=C(CCCCCCC(=O)Nc1ccccc1)NO [VORINOSTAT] | – | – | – | – | 33 µM | – | IC50 (L-428): 2.3 µM; inhibition [6]: Active; Activity (NCI-H460 [7]): Active; Activity (NCI-H460 [8]): Active; Activity (NCI-H460 [9]): Active; Activity (NCI-H460 [10]): 1.8%; Activity (NCI-H460 [11]): 65.2%; Activity (NCI-H460 [12]): 11.7%; Activity (NCI-H460 [13]): 23.1%; Activity [14]: 2.1%; Activity [15]: 62.2%; Activity [16]: 14.7%; Activity [17]: 21% |
| CC(C)(Oc1ccc(-c2ccc(C=CC(=O)O)cc2)cc1C12CC3CC(CC(C3)C1)C2)C(=O)NO | 1.3 µM | – | 7.3 µM | 5.6 | – | – | – |
| O=C(O)C=Cc1ccc(-c2ccc(OCCCCCCCC(=O)NO)c(C34CC5CC(CC(C5)C3)C4)c2)cc1 | 5.5 µM | – | 9.6 µM | 1.7 | – | – | – |

Continued, in another order:

| IC50 (NCI-H460 [1]) | IC50 (A2780) | Compound | IC50 [2] | Ratio IC50 [3] | IC50 [4] | Ratio IC50 [5] | further results |
| --- | --- | --- | --- | --- | --- | --- | --- |
| 8.3 µM | – | O=C(O)C=Cc1ccc(-c2ccc(OCCC(=O)NO)c(C34CC5CC(CC(C5)C3)C4)c2)cc1 | 10.6 µM | 1.3 | – | – | – |
| > 10 µM | – | O=C(O)C=Cc1ccc(-c2ccc(OCC(=O)O)c(C34CC5CC(CC(C5)C3)C4)c2)cc1 | > 10 µM | – | – | – | – |
| 10 µM | 10 µM | O=C(O)C=Cc1ccc(-c2ccc(OCCC(=O)O)c(C34CC5CC(CC(C5)C3)C4)c2)cc1 | > 10 µM | – | 23.8 µM | 2.38 | – |
| 1.7 µM | 4.2 µM | O=C(O)C=Cc1ccc(-c2ccc(OCCCC(=O)NO)c(C34CC5CC(CC(C5)C3)C4)c2)cc1 | 8.3 µM | 4.9 | 3.9 µM | 0.9 | – |
